In patent publication US9920010B2, “CXCR7 receptor modulators” (IDORSIA PHARMACEUTICALS LTD, priority 2013, dated 2018) one finds EC50 data, which are given here for 26 compounds.

For the assay, the target named is T1, CXCR7 (Homo sapiens, UniProt P25106).
T1 construct: host or cells: CHO-K1 (PathHunter CHO-K1 CXCR7 b-arrestin cell line, stably transfected)
Briefly: PathHunter CHO-K1 CXCR7 b-arrestin recruitment assay (CXCR7 agonistic activity). In kind it is cell-based. To be noted: PathHunter CHO-K1 CXCR7 b-arrestin cell line. Summed up:
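Stable CHO-K1 line with C-terminally ProLink-tagged CXCR7 and β-arrestin 2–EA fusion; β-arrestin recruitment restores β-gal activity, read by chemiluminescence after 1 h RT detection. Cells seeded 24 h, starved in OPTIMEM 3–4 h, exposed to compounds 90 min at 37 °C in HBSS/HEPES/BSA. Geometric-mean EC50 from repeated measurements.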
(In general: Recruitment of arrestin is a read-out of receptor activation apart from second messengers.)

The structures appear in SMILES notation.

What is called EC50 is the midpoint of the concentration-response curve. A higher EC50 goes with weaker potency.

T1 sequence (P25106 whole entry): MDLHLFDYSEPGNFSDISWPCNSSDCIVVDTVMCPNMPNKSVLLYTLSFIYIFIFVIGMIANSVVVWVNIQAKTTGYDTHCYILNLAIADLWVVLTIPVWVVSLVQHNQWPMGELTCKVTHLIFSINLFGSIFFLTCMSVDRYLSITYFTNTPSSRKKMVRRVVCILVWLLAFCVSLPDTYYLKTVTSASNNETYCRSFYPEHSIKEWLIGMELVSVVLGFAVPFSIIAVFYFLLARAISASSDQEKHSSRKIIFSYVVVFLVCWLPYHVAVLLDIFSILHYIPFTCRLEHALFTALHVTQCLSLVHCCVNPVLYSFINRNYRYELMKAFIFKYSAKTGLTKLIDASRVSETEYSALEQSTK
T1 sequence (P32121 whole entry partner): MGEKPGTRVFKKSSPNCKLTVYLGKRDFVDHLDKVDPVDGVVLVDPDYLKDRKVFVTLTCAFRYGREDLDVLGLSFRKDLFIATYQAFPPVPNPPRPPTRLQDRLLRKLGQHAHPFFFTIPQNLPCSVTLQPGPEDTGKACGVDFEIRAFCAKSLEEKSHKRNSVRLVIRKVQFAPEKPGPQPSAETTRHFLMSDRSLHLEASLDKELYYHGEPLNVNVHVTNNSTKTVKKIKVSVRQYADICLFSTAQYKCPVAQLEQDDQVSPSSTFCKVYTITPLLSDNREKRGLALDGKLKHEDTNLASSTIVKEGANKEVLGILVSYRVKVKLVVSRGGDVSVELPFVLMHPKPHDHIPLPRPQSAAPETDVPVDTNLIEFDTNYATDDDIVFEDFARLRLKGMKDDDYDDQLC

On to `CN(C)CCN(Cc1ncccc1Cl)C(=O)CNc1cccc2c1CCN(C(=O)[C@@H]1C[C@@H]1F)C2` (racemic) [Example 293, rac-N-(3-Chloro-pyridin-2-ylmethyl)-N-(2-dimethylamino-ethyl)-2-[2-((1S*,2S*)-2-fluoro-cyclopropanecarbonyl)-1,2,3,4-tetrahydro-isoquinolin-5-ylamino]-acetamide], for which the midpoint of the response, the EC50, lay at 20 nM.

Consider `CN(C)CCN(Cc1ccccc1C(F)(F)F)C(=O)CNc1cccc2c1CCN(CC(F)(F)F)C2` [Example 86, N-(2-Dimethylamino-ethyl)-2-[2-(2,2,2-trifluoro-ethyl)-1,2,3,4-tetrahydro-isoquinolin-5-ylamino]-N-(2-trifluoromethyl-benzyl)-acetamide], for which the EC50 stood at 23 nM.

On to `CCN1CCc2cccc(NCC(=O)N(CCN(C)C(=O)OC(C)(C)C)Cc3ccccc3C(F)(F)F)c2C1` [compound 515], for which the EC50 amounted to 382 nM.

For `COCCN1CCc2c(/C=C/C(=O)N(CCN(C)C)Cc3ccccc3C(F)(F)F)cccc2C1` [Example 317, (E)-N-(2-Dimethylamino-ethyl)-3-[2-(2-methoxy-ethyl)-1,2,3,4-tetrahydro-isoquinolin-5-yl]-N-(2-trifluoromethyl-benzyl)-acrylamide], a half-maximal effect (EC50) was put at 5 nM.

The compound `C/C(=C\c1ccccc1)CN(CCC1CCCN1C)C(=O)CNc1cccc2c1CCN(CC1CC1)C2` (racemic) [Example 61, rac-2-(2-Cyclopropylmethyl-1,2,3,4-tetrahydro-isoquinolin-5-ylamino)-N-((E)-2-methyl-3-phenyl-allyl)-N-[2-(1-methyl-pyrrolidin-2-yl)-ethyl]-acetamide] came in with a concentration for a half-maximal effect (EC50) of 5 nM.

For the compound `CCN1CCc2cccc(NCC(=O)N(CCN(C)C)Cc3ccccc3)c2C1` [Example 185, N-Benzyl-N-(2-dimethylamino-ethyl)-2-(2-ethyl-1,2,3,4-tetrahydro-isoquinolin-8-ylamino)-acetamide], the EC50 is 79 nM.

The compound `CN(CCN(Cc1ncccc1C(F)(F)F)C(=O)CNc1cccc2c1CCN(CC1CC1)C2)C(=O)OC(C)(C)C` [Example 215, {2-[[2-(2-Cyclopropylmethyl-1,2,3,4-tetrahydro-isoquinolin-5-ylamino)-acetyl]-(3-trifluoromethyl-pyridin-2-ylmethyl)-amino]-ethyl}-methyl-carbamic acid tert-butyl ester] gave an EC50 of 108 nM.

Turning to `CN(C)CCN(Cc1ccccc1)C(=O)CNc1cccc2c1CN(C(=O)OC(C)(C)C)CC2` [Example 181, 8-({[Benzyl-(2-dimethylamino-ethyl)-carbamoyl]-methyl}-amino)-3,4-dihydro-1H-isoquinoline-2-carboxylic acid tert-butyl ester], a half-maximal effect (EC50) was put at 117 nM.

As for `CCN1CCc2cccc(NCC(=O)N(CCN(C)C)Cc3ccc(F)cc3)c2C1` [compound 504], the EC50 is 93 nM.

In the case of `CN(C)CCN(Cc1ccccc1)C(=O)CNc1cccc2c1CN(C)CC2` [compound 182], the response was half-maximal at 69 nM (EC50).

Take `CCN1Cc2cccc(NCC(=O)N(CCN3CCCC3)Cc3ccccc3C(F)(F)F)c2CC1=O` [Example 311, 2-(2-Ethyl-3-oxo-1,2,3,4-tetrahydro-isoquinolin-5-ylamino)-N-(2-pyrrolidin-1-yl-ethyl)-N-(2-trifluoromethyl-benzyl)-acetamide]: the EC50 was 24 nM.

For `CCN1CCc2cccc(NCC(=O)N(CCC#N)Cc3ccccc3C(F)(F)F)c2C1` [compound 516], a half-maximal response (EC50) required 181 nM.

On to `COCCN1CCc2c(/C=C/C(=O)N(CCN3CCC(F)(F)CC3)Cc3ncccc3Cl)cccc2C1` [Example 326, (E)-N-(3-Chloro-pyridin-2-ylmethyl)-N-[2-(4,4-difluoro-piperidin-1-yl)-ethyl]-3-[2-(2-methoxy-ethyl)-1,2,3,4-tetrahydro-isoquinolin-5-yl]-acrylamide], for which the EC50 is 184 nM.

Regarding `CN1CCC(N(Cc2ccccc2)C(=O)CNc2cccc3c2CCN(CC2CC2)C3)C1` (racemic) [Example 180, rac-N-Benzyl-2-(2-cyclopropylmethyl-1,2,3,4-tetrahydro-isoquinolin-5-ylamino)-N-(1-methyl-pyrrolidin-3-yl)-acetamide], the EC50 was 8 nM.

With `CCN1CCc2cccc(NCC(=O)N(Cc3ccccc3C(F)(F)F)C3CCCN(C)C3)c2C1` (racemic) [compound 518], the EC50 is 9 nM.

`CCN1CCc2cccc(NCC(=O)N(CCNC)Cc3ccccc3C(F)(F)F)c2C1` [compound 444, 2-(2-Ethyl-1,2,3,4-tetrahydro-isoquinolin-8-ylamino)-N-(2-methylamino-ethyl)-N-(2-trifluoromethyl-benzyl)-acetamide] registered an EC50 of 15 nM.

`CNCCN(Cc1ccccc1C(F)(F)F)C(=O)CNc1cccc2c1CCN(C(=O)OC)C2` [compound 394, 5-({[(2-Methylamino-ethyl)-(2-trifluoromethyl-benzyl)-carbamoyl]-methyl}-amino)-3,4-dihydro-1H-isoquinoline-2-carboxylic acid methyl ester] showed a half-maximal effective concentration (EC50) of 9 nM.

`CN(C)CCN(Cc1ccccc1C(F)(F)F)C(=O)CNc1cccc2c1CCN(CCF)C2` [Example 286, N-(2-Dimethylamino-ethyl)-2-[2-(2-fluoro-ethyl)-1,2,3,4-tetrahydro-isoquinolin-5-ylamino]-N-(2-trifluoromethyl-benzyl)-acetamide] had an EC50 of 37 nM.

In turn, `COCCN1CCc2c(cccc2NCC(=O)N(CCC(C)(C)O)Cc2ccccc2C(F)(F)F)C1` [Example 304, N-(3-Hydroxy-3-methyl-butyl)-2-[2-(2-methoxy-ethyl)-1,2,3,4-tetrahydro-isoquinolin-5-ylamino]-N-(2-trifluoromethyl-benzyl)-acetamide] showed an EC50 of 311 nM.

`CCN(C)CCN(Cc1ccccc1C(F)(F)F)C(=O)CNc1cccc2c1CCN(CC1CC1)C2` [Example 231, 2-(2-Cyclopropylmethyl-1,2,3,4-tetrahydro-isoquinolin-5-ylamino)-N-[2-(ethyl-methyl-amino)-ethyl]-N-(2-trifluoromethyl-benzyl)-acetamide] came in with an EC50 of 1 nM.

Turning to `O=C(CNc1cccc2c1CCN(CC1CC1)C2)N(Cc1cncs1)Cc1ccccc1C(F)(F)F` [Example 247, 2-(2-Cyclopropylmethyl-1,2,3,4-tetrahydro-isoquinolin-5-ylamino)-N-thiazol-5-ylmethyl-N-(2-trifluoromethyl-benzyl)-acetamide], the concentration giving a half-maximal response (EC50) is 29 nM.

`CCN1CCc2cccc(NCC(=O)N(CCN(C)C)Cc3cccc(Cl)c3)c2C1` [compound 501] had an EC50 of 54 nM.

In turn, `C=CCN1CCc2c(CCC(=O)N(CCN(C)C)Cc3ccccc3C(F)(F)F)cccc2C1` [Example 349, 3-(2-Allyl-1,2,3,4-tetrahydro-isoquinolin-5-yl)-N-(2-dimethylamino-ethyl)-N-(2-trifluoromethyl-benzyl)-propionamide] gave a concentration for a half-maximal effect (EC50) of 12 nM.

With `CN(C)CCN(Cc1ccccc1)C(=O)CNc1cccc2c1CCN(C(=O)OCc1ccccc1)C2` [compound 131], the EC50 was found to be 450 nM.

The compound `CCN1CCc2cccc(NCC(=O)N(CCC(C)C)Cc3ccccc3C(F)(F)F)c2C1` [compound 513] displayed an EC50 of 377 nM.

Compound `COC(=O)CN1CCc2c(cccc2NCC(=O)N(CCN(C)C)Cc2ccccc2C(F)(F)F)C1` [Example 360, [5-({[(2-Dimethylamino-ethyl)-(2-trifluoromethyl-benzyl)-carbamoyl]-methyl}-amino)-3,4-dihydro-1H-isoquinolin-2-yl]-acetic acid methyl ester] returned an EC50 of 30 nM.
